pIC50, pKi: −log10 of the molar value. Read-outs that look alike come from different tables or passages of the source.
Assays:
Msm [1] = test: MIC assays for antibiotic synergy with TP; format: cell-based, Mycobacterium smegmatis; details: for improvement in MIC50: with 100 μM TP added
Mtb DnaK-DnaJ2-GrpE = Mtb DnaK-DnaJ2-GrpE (Mycobacterium tuberculosis, UniProt P9WMJ9); test: biochemical
Msm [2] = format: cell-based, Mycobacterium smegmatis
human Hsc70 and DnaJA2 = human Hsc70 and DnaJA2 (Homo sapiens, UniProt P11142); test: Denatured luciferase refolding by human chaperones; format: biochemical
[3] = biological target: DnaK^SBD, residues 360-625 (Mycobacterium tuberculosis, UniProt P9WMJ9); format: binding; details: FP competition
Mtb DnaK = Mtb DnaK (Mycobacterium tuberculosis, UniProt P9WMJ9); format: biochemical; details: excess compound, DnaK without cofactors
luciferase = test: Luciferase counter-assay; format: biochemical
proteinase K = proteinase K (Parengyodontium album, UniProt P06873); test: Hemoglobin proteolysis control for proteinase K activity; format: biochemical; details: 50 μM TP
M. smegmatis (Msm) = test: Mycobacterial growth inhibition assay; format: cell-based, Mycobacterium smegmatis; details: for effect on Msm growth: wild-type Msm
[4] = biological target: Mtb DnaK activation by DnaJ2 and GrpE (Mycobacterium tuberculosis, UniProt P9WMJ9); format: biochemical; details: for DnaJ2- and GrpE-mediated activation of DnaK: excess HCV inhibitor, DnaK 4 μM
HCV protease (NS3/4A) = details: ref Grillot et al., 2011; cited from earlier work
[5] = biological target: mycobacterial DnaK and GrpE with DnaJ2 (Mycobacterium tuberculosis, UniProt P9WMJ9); format: biochemical; details: excess compound
Mtb DnaK^FL = Mtb DnaK^FL (Mycobacterium tuberculosis, UniProt P9WMJ9); format: binding; details: FP competition
Msm [6] = details: below the limit of detection; ref Fay et al., 2021; cited from earlier work
[7] = kinetic analysis of ATP hydrolysis by DnaK-DnaJ2-GrpE

Mtb DnaK-DnaJ2-GrpE, sequence (P9WMJ9 whole entry): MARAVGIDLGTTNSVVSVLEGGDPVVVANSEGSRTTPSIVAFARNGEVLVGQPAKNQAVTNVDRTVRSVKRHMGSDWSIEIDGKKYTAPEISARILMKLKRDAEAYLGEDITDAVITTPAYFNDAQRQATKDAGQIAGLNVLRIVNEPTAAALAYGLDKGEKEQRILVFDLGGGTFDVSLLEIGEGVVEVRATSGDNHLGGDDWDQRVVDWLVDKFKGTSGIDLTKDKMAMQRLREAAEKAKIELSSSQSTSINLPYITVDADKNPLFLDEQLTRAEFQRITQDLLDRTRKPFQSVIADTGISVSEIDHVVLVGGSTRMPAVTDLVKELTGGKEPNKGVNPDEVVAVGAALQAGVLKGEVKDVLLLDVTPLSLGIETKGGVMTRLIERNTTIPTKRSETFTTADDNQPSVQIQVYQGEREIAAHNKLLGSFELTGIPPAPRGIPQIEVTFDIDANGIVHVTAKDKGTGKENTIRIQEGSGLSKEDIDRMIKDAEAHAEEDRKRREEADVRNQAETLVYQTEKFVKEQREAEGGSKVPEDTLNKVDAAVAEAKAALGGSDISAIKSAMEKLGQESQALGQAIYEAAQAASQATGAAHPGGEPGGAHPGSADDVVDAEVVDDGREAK
Mtb DnaK activation by DnaJ2 and GrpE, sequence (P9WMJ9 whole entry): as above
human Hsc70 and DnaJA2, sequence (P11142 whole entry, the tested form may be a part): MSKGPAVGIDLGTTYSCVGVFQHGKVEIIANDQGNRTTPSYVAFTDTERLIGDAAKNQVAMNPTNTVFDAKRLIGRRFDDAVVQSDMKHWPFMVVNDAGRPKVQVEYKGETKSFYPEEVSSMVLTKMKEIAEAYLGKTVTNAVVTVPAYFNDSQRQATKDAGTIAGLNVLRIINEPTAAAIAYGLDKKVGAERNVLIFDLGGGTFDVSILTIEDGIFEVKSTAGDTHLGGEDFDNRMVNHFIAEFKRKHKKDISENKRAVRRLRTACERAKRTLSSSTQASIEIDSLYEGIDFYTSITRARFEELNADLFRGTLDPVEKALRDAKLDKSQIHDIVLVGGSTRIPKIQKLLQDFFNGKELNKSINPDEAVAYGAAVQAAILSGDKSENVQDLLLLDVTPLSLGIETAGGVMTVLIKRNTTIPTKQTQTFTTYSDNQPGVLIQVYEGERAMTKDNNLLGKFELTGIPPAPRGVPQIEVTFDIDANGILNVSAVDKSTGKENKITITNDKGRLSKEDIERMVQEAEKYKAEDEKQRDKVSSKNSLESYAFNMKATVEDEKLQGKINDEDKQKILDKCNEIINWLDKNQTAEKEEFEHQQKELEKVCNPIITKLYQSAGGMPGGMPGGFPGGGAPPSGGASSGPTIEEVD
mycobacterial DnaK and GrpE with DnaJ2, sequence (P9WMJ9 whole entry): as the sequence (P9WMJ9 whole entry) above
Mtb DnaK, sequence (P9WMJ9 whole entry): as above
Mtb DnaK^FL, sequence (P9WMJ9 whole entry): as above
DnaK^SBD, residues 360-625, sequence (P9WMJ9 360-625): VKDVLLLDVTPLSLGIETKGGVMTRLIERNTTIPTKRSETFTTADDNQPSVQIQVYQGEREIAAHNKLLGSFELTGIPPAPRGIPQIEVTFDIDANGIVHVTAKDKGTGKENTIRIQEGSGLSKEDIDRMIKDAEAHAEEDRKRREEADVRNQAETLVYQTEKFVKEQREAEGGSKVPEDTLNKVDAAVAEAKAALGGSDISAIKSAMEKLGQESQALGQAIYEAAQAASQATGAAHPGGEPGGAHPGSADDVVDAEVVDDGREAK
proteinase K, sequence (P06873 106-384): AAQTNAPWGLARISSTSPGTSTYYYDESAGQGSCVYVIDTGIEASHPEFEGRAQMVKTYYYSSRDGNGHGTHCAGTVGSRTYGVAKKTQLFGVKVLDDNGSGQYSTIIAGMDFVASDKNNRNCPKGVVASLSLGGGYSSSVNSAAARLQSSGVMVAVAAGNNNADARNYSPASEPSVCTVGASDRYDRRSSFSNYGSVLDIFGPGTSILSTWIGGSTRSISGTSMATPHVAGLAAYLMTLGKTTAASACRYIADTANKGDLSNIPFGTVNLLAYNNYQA

NC[C@H]1O[C@H](O[C@H]2[C@H](O)[C@@H](O[C@H]3O[C@H](CO)[C@@H](O)[C@H](N)[C@H]3O)[C@H](N)C[C@@H]2N)[C@H](O)[C@@H](O)[C@@H]1O [kanamycin]
improvement in MIC50 (Msm [1]): ~ 2 fold

[H]/N=C(/N)N[C@H]1[C@H](O)[C@@H](O)[C@H](O[C@@H]2O[C@@H](C)[C@](O)(C=O)[C@H]2O[C@@H]2O[C@@H](CO)[C@H](O)[C@@H](O)[C@@H]2NC)[C@@H](N/C(N)=N\[H])[C@@H]1O [streptomycin]
improvement in MIC50 (Msm [1]): ~4 fold

4BB-Val-Val-Pro-Leu-OMe [Compound 6]
inhibition of DnaK-DnaJ2-GrpE ATPase activity in dose-response assay (Mtb DnaK-DnaJ2-GrpE): no activity

4BB-Val-Val-Pro-Leu-OH [Compound 3]
inhibition of DnaK-DnaJ2-GrpE ATPase activity in dose-response assay (Mtb DnaK-DnaJ2-GrpE): no activity

CCC[C@H](NC(=O)[C@@H]1[C@H]2CCC[C@H]2CN1C(=O)[C@@H](NC(=O)[C@@H](NC(=O)c1cnccn1)C1CCCCC1)C(C)(C)C)C(=O)C(=O)NC1CC1 [TP, Telaprevir]
lowering of the FOR of RIF (Msm [2]; 100 μM TP + 240 μM RIF, Msm): about 1 log10
FOR of Msm for RIF with TP added (Msm [2]; 240 μM RIF + 100 μM TP): ~ 10^−8
refolding activity compared to DMSO alone (human Hsc70 and DnaJA2; 100 μM TP): 35%
displacement of FL-NR from DnaK^SBD [3]: displace FL-NR
effect on DnaK ATPase activity (Mtb DnaK): slightly inhibits
increase of the KM of DnaK (Mtb DnaK-DnaJ2-GrpE; [7]): ~ 2 fold
activity against luciferase alone (luciferase): no activity
effect on activity of rifampicin (Msm [1]; 100 μM TP): does not affect the activity
effect on cleavage by proteinase K (proteinase K): did not affect cleavage by proteinase K
concentration causing growth inhibition (M. smegmatis (Msm)): > 100 µM
growth of Msm ΔdnaJ1 (M. smegmatis (Msm); 100 μM TP): growth defects
DnaJ2- and GrpE-mediated activation of DnaK [4]: significantly disrupted
pKi (HCV protease (NS3/4A)): 7.36

CNC(=O)[C@H]1O[C@@H](n2cnc3c(NCc4cccc(I)c4)nc(Cl)nc32)[C@H](O)[C@@H]1O [MECA, 2Cl-IB-MECA]
pIC50 (Mtb DnaK-DnaJ2-GrpE): ~5.35
competition with ATP (Mtb DnaK-DnaJ2-GrpE; [7]): no competition with ATP
activity against luciferase alone (luciferase): no activity
effect on Msm growth (M. smegmatis (Msm)): only TP appears to cause growth inhibition of mycobacterial cells
DnaJ2-mediated activation of DnaK's ATPase activity [4]: hindered
activation of DnaK by increasing concentrations of GrpE ([4]; excess MECA, sub-stoichiometric DnaJ2): nearly abrogated

CC(C)(C)NC(=O)N[C@H](C(=O)N1C[C@H]2[C@@H]([C@H]1C(=O)NC(CC1CCC1)C(=O)C(N)=O)C2(C)C)C(C)(C)C (some centres unmarked) [BC, boceprevir]
inhibition of human chaperones (human Hsc70 and DnaJA2; excess compound): does not inhibit
inhibition of DnaK-DnaJ2-GrpE ATPase activity in dose-response assay (Mtb DnaK-DnaJ2-GrpE; dose-response): inactive
effect on refolding reactions [5]: only a slight effect
competition with FL-NR for binding to DnaK (Mtb DnaK^FL): no effect on binding of the probe

COc1ccc2c(O[C@@H]3C[C@H]4C(=O)N[C@]5(C(=O)NS(=O)(=O)C6CC6)C[C@H]5/C=C\CCCCN(C)C(=O)[C@@H]4C3)cc(-c3nc(C(C)C)cs3)nc2c1C [simeprevir]
IC50 value relative to that of TP (Mtb DnaK-DnaJ2-GrpE; DnaK-DnaJ2-GrpE ATPase): ~ 8 fold
inhibition of DnaK-DnaJ2-GrpE ATPase activity in dose-response assay (Mtb DnaK-DnaJ2-GrpE; dose-response): measurable inhibition
effect on Msm growth (M. smegmatis (Msm)): did not affect Msm growth
DnaJ2- and GrpE-mediated activation of DnaK [4]: significantly disrupted

CO[C@H]1/C=C/O[C@@]2(C)Oc3c(C)c(O)c4c(O)c(c(/C=N/N5CCN(C)CC5)c(O)c4c3C2=O)NC(=O)/C(C)=C\C=C\[C@H](C)[C@H](O)[C@@H](C)[C@@H](O)[C@@H](C)[C@H](OC(C)=O)[C@@H]1C [RIF, rifampicin]
FOR value of Msm ΔdnaJ2 cells (Msm [6]): < 10^−10
